Test results reported in article PMC7708037, “Targeting OGG1 arrests cancer cell proliferation by inducing replication stress” (Nucleic Acids Research, 2020).

Assays:
A3 xenograft tumors = test: Mouse xenograft experiment; type: in vivo; conditions: A3 subcutaneous tumors in NOD-SCID mice, oral 20 mg/kg, increased to 40 mg/kg
Protocol: Animal experiments were conducted as per the European directive, ethical guideline and regulations of the regional animal ethical committee Stockholm 2010/63 (N8914). Upon arrival to animal facility, animals were acclimatized in the animal house for a week with ad lib food and water, with a 12 h light cycle and the temperature and humidity set according to laboratory animal guidelines and regulations. For the xenograft experiment involving inducible shRNA, 1 × 10^7 non-targeting luciferase transfected A3 cells in 50% matrigel in PBS were injected into flank region of BALB/c nude mice. Later, mice from non-targeting and shRNA groups were randomly divided into two groups containing eight mice per group. […] Tumor volume was measured using calipers (length × 0.52 × width × width) and bioluminescence images were taken using an IVIS spectrum in vivo imaging system (Perkin-Elmer) after intraperitoneal injection of D-luciferin (150 mg/kg in PBS). […] Following lysis by three freeze-thaw cycles, samples were centrifuged at 20 000 × g for 30 min, and OGG1 in the supernatant was detected by immunoblotting. […]
Figure 7. […] Tumors were excised following termination, and TH5487 target engagement was analyzed by cellular thermal shift assay, using an antibody specific for the human OGG1 protein. […]

[1] = test system: Ogg1−/− mouse embryonic fibroblasts; test: Colony formation assay; type: cell-based; conditions: up to 20 μM
Protocol: (§1) The indicated concentrations TH5487 were spotted in 6-well plates using a Tecan D300e digital dispenser. 200–500 cells/well H460, ACHN, Ogg1^−/− mouse embryonic fibroblasts and MRC5 cells were then seeded at 200–500 cells/well and incubated for 7–11 days. Colonies exceeding 50 cells were fixed, stained and enumerated as above.
(§2) Figure 3. The OGG1 inhibitor TH5487 is selectively toxic to oncogene-expressing cells and cancer cell lines. (A) Close-up view of ligand TH5487 (green) binding to human OGG1. Important residues in the binding site are marked, hydrogen bond interactions are shown in black dashed line, water (red sphere)-mediated interactions in grey dashed line. (B) Comparison between the binding of ligand TH5487 (green) to human OGG1 (gray) with the structure of TH5675 (pink) bound to mouse OGG1 (yellow, PDB 6G3Y). (C) Viability of BJ-Tert and BJ-Ras cells exposed to the indicated concentrations TH5487 for five days. Data are average ±SD of four technical replicates from two independent experiments. (D) Clonogenic survival of cell lines exposed to TH5487. The cancer cell lines ACHN and H460, and the non-transformed cell lines MRC5 and Ogg1^−/− mouse embryonic fibroblasts (MEF) were incubated for 6–11 days in the presence of the indicated concentrations TH5487, followed by colony enumeration. […]

[2] = set-up: method as in PMID 30442810; conditions: cited from earlier work
ACHN = test: Colony formation assay; type: cell-based, human; conditions: 6–11 days, Figure 3D
Protocol: as §1
as §2, with “enumeration. Data are average ±SD values of four technical replicates, representative of three independent experiments. (E) TH5487 selectively decreases viability of cancer cell lines. EC50-values of 34 cancer (red) and 7 non-transformed cell lines (blue). Cells were exposed to a dilution series of TH5487 for five days followed by a viability assessment using resazurin. All cell lines were tested in two to ten independent experiments. Each point represents the EC50-value from one experiment (average of two or three technical replicates). (F) Comparative analysis of EC50 values for TH5487 in cancer- and non-transformed cell lines, and CD34+ hematopoietic stem cells, CD34- fraction from cord blood or PBMCs from healthy donor blood.” for “enumeration.”

H460 = test: Colony formation assay; type: cell-based, human; conditions: H460, 6–11 days, Figure 3D
Protocol: as §1
as §2, with “enumeration. Data are average ±SD values of four technical replicates, representative of three independent experiments. (E) TH5487 selectively decreases viability of cancer cell lines. EC50-values of 34 cancer (red) and 7 non-transformed cell lines (blue). Cells were exposed to a dilution series of TH5487 for five days followed by a viability assessment using resazurin. All cell lines were tested in two to ten independent experiments. Each point represents the EC50-value from one experiment (average of two or three technical replicates). (F) Comparative analysis of EC50 values for TH5487 in cancer- and non-transformed cell lines, and CD34+ hematopoietic stem cells, CD34- fraction from cord blood or PBMCs from healthy donor blood.” for “enumeration.”

MRC5 = test: Colony formation assay; type: cell-based, human; conditions: MRC5, up to 20 μM
Protocol: as §1
as §2, with “enumeration. Data are average ±SD values of four technical replicates, representative of three independent experiments. (E) TH5487 selectively decreases viability of cancer cell lines. EC50-values of 34 cancer (red) and 7 non-transformed cell lines (blue). Cells were exposed to a dilution series of TH5487 for five days followed by a viability assessment using resazurin. All cell lines were tested in two to ten independent experiments. Each point represents the EC50-value from one experiment (average of two or three technical replicates). (F) Comparative analysis of EC50 values for TH5487 in cancer- and non-transformed cell lines, and CD34+ hematopoietic stem cells, CD34- fraction from cord blood or PBMCs from healthy donor blood.” for “enumeration.”

In the case of O=C(Nc1ccc(I)cc1)N1CCC(n2c(=O)[nH]c3c(Br)cccc32)CC1 [TH5487], the Xenograft growth inhibition (A3 xenograft tumors) is listed as “not able to detect xenograft growth inhibition”, the Clonogenic potential [1] is listed as “unaffected” and the “Fraction associated with plasma proteins” value [2] is listed as “more than 99%”. For the same compound, the Clonogenic potential (ACHN) was “concentration-dependent loss of clonogenic potential”, the Clonogenic potential (H460) was “concentration-dependent loss of clonogenic potential” and the Clonogenic potential (MRC5) was “unaffected”.
